This passage reports GI50 and TGI results from PubChem BioAssay (NCI).

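1) Cells in 96-well plates. 2) Compound, 48 h, 5 concentrations. 3) Linear interpolation between surrounding doses. 4) Unreached endpoint = highest concentration. Here, GI50 denotes the concentration required for 50% inhibition of growth. The concentration for full growth arrest is given as TGI.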

What all share (test): growth of human tumour cells (NCI), 48 h
The test system of test [1] is RPMI-8226 leukemia.
Test [2] concerns HCT-15 colon.
Test [3] has as its system IGROV1 ovarian.
Test [4] has as its system K-562 leukemia.
The test system of test [5] is DU-145 prostate.
Test [6] relates to HCT-116 colon.
Test [7] deals with SF-295 CNS.
For test [8], the system named is TK-10 renal.
In test [9] the test system is NCI-H522 lung.
For test [10], the system named is UACC-257 melanoma.

With `O=C(Cc1csc2nc(-c3ccc(Br)cc3)cn12)N/N=C/c1ccc(O)cc1`, the GI50 is 4.29 µM in test [1]; 17.9 µM in test [2]; 10.6 µM in test [3]; 1.83 µM in [4]; 22.4 µM in test [5]; 10.5 µM in [6]. Further, the GI50 in test [7] was 12 µM; in [8], 9.79 µM; in test [9], 10.7 µM; in test [10], 1.52 µM. Also, the TGI worked out at 40.2 µM in test [1]; 61.5 µM in test [2]; 39.7 µM in [3]; 7.02 µM in test [4]; 87.4 µM in test [5]; 24.2 µM in test [6]. The TGI in test [7] is 41.7 µM; in test [8], 33.4 µM; in test [9], 34.5 µM; in [10], 7.72 µM.
`COc1cc(/C=C(\C#N)C(N)=C(C#N)C#N)cc(O)c1O`: the TGI in test [1], in [2], in test [3], in test [4], in test [5] and in test [6] was greater than 100 µM each time. Moreover, the TGI in test [7], in test [8], in [9] and in [10] was greater than 100 µM throughout.
On to `OCNCCNc1nc2ccccc2c2[nH]c3ccccc3c12`, for which the GI50 was 0.84 µM in test [1]; 1.42 µM in test [2]; 1.14 µM in [3]; 1.55 µM in test [4]; 0.735 µM in test [5]; 0.186 µM in test [6]. Besides, the GI50 in test [7] is 1.41 µM; in [8], 1.76 µM; in [9], 1.55 µM; in test [10] it was 1.64 µM. For the same compound, the TGI is 2.01 µM in [1]; 6.71 µM in [2]; 7.31 µM in test [3]; 42.8 µM in [4]; 2.42 µM in [5]; 1.14 µM in [6]. The TGI in test [7] is 5.97 µM; in test [8] it was 9.89 µM; in test [9] it was greater than 50 µM; in test [10] it was 5.71 µM.
In the case of `O=C(c1ccc(Cl)cc1)C1OC12C(=O)Nc1ccccc12` (stereo not given), the TGI in test [1] came out at 10.2 µM; in [2] it was 11.2 µM; in test [3] it was 39.1 µM; in [4] it was 11.2 µM; in test [5], 33.8 µM; in test [6], 13.6 µM. The TGI stood at 33.7 µM in [7], 35.2 µM in [8], 3.97 µM in test [9] and 27.8 µM in test [10].
Regarding `O=C(Nc1ccccc1C(=O)N/N=C(\c1ccccc1)c1ccccn1)c1ccc(F)cc1`, the GI50 was 0.51 µM in [1]; 0.0426 µM in test [2]; 0.198 µM in [3]; 0.519 µM in [4]; 0.351 µM in test [5]; 0.266 µM in test [6]. The GI50 was 0.262 µM in [7], 0.408 µM in test [8], 0.393 µM in test [9] and 0.793 µM in [10]. The TGI in [1], in test [2], in [3], in test [4], in [5] and in [6] was greater than 100 µM in each case. Also, the TGI is greater than 100 µM in [7], greater than 100 µM in test [8], greater than 28.6 µM in test [9] and greater than 100 µM in test [10].
For `Nc1ccc2c(c1)c(N)nn2C(=O)Nc1ccc(Cc2ccccc2)cc1`, the GI50 in test [1] is 5.14 µM; in test [2], 2.75 µM; in test [3] it was 16.4 µM; in [4], 2.24 µM; in test [5], 10.9 µM; in test [6] it was 6.79 µM. Besides, the GI50 in [7] is 3.96 µM; in test [8], 19.4 µM; in test [9], 14.7 µM; in [10], 14.5 µM. The TGI in [1] came out at 35 µM; in [2] it was 14.2 µM; in test [3] it was 54.1 µM; in test [4] it was 11.4 µM; in [5] it was 24 µM; in test [6] it was 20.8 µM. Further, the TGI in [7] was 15.1 µM; in [8], 46 µM; in test [9], 39.6 µM; in test [10], 29.7 µM.
On to `Cc1cc(Cl)ccc1NS(=O)(=O)c1ccc(-c2cnc(C3CC3)o2)cc1`, for which the GI50 was 0.343 µM in test [1]; 0.0908 µM in test [2]; 0.365 µM in test [3]; 0.0723 µM in test [4]; 0.395 µM in [5]; 0.3 µM in test [6]. Also, the GI50 is 0.0799 µM in test [7], 11.8 µM in [8], 0.251 µM in [9] and 3.85 µM in [10]. Besides, the TGI in test [1] is 23.1 µM; in test [2], 12.2 µM; in test [3], 15.5 µM; in [4], greater than 100 µM; in test [5], 17.9 µM; in test [6] it was 11.9 µM. The TGI turned out to be 2.02 µM in [7], 31.1 µM in test [8], 4.34 µM in test [9] and 25.8 µM in test [10].
`Oc1ccc(Cl)cc1Cc1cc(Cl)ccc1O`: the GI50 in test [1] was 1.53 µM; in test [2], 3.26 µM; in [3], 3.34 µM; in [4], 3.3 µM; in test [5] it was 3.81 µM; in test [6], 2.6 µM. Further, the GI50 is 2.27 µM in [7], 3.65 µM in test [8], 1.92 µM in [9] and 1.87 µM in [10]. Besides, the TGI in [1] came to 5.1 µM; in test [2], 12.3 µM; in test [3], 12.5 µM; in test [4] it was 13.7 µM; in test [5], 13.8 µM; in [6], 7.08 µM. In addition, the TGI in [7] is 6.09 µM; in test [8], 11.3 µM; in test [9] it was 5.32 µM; in test [10], 5.39 µM.
As for `Cc1ccc(C(C)C)cc1NC(=O)Nc1ccc([N+](=O)[O-])cc1`, the GI50 in test [1] is 1.57 µM; in test [2] it was 2.44 µM; in test [3] it was 1.38 µM; in test [4], 2.96 µM; in [5], 2.49 µM; in test [6], 2.45 µM. The GI50 is 1.84 µM in test [7], 2.36 µM in test [8], 1.38 µM in [9] and 2.41 µM in test [10]. The TGI in test [1] came out at 4.73 µM; in test [2], 8.94 µM; in test [3], 4.79 µM; in test [4], 7.74 µM; in [5], 12 µM; in test [6] it was 7.13 µM. Also, the TGI was 5.11 µM in [7], 9.44 µM in test [8], 3.97 µM in [9] and 7.71 µM in test [10].
Take `COc1cnc2cc(C(=O)O)c3ccccc3c2c1`: the TGI in test [1], in test [2], in test [3], in [4], in test [5] and in [6] was greater than 100 µM each time. Further, the TGI in test [7], in test [8], in test [9] and in [10] was greater than 100 µM in each case.
For `Oc1[nH]c2cc(Cl)ccc2c1/C=c1/ccc2c(c1)N=C(c1cc(F)cc(F)c1)N=2`, the GI50 was 2.38 µM in test [1]; 3.37 µM in test [2]; 3.29 µM in [3]; 0.821 µM in test [4]; 1.98 µM in test [5]; 1.17 µM in test [6]. Also, the GI50 was 0.509 µM in test [7], 5.53 µM in [8], 1.19 µM in [9] and 0.927 µM in test [10]. The TGI in [1] was 6.28 µM; in test [2], 14.7 µM; in test [3] it was 17.9 µM; in test [4] it was 12.1 µM; in test [5] it was 4.45 µM; in test [6], 3.17 µM. Besides, the TGI was 2.84 µM in test [7], 18.8 µM in test [8], 3.38 µM in test [9] and 19.2 µM in [10].
In the case of `Cc1nc(N)nc2ccccc12`, the TGI in test [1], in [2], in test [3], in test [4], in test [5] and in test [6] was greater than 100 µM each time. Further, the TGI in test [7], in [8], in test [9] and in test [10] was greater than 100 µM in each case.
For the compound `CC1(C)CC[C@]2(C(N)=O)CC[C@]3(C)C(=CC[C@@H]4[C@@]5(C)C/C(=C/c6ccncc6)C(=O)C(C)(C)[C@@H]5CC[C@]43C)[C@@H]2C1`, the GI50 is 1.73 µM in test [1]; 1.69 µM in [2]; 2.29 µM in test [3]; 2.28 µM in test [4]; 2.91 µM in test [5]; 1.49 µM in test [6]. In addition, the GI50 in test [7] was 1.67 µM; in test [8] it was 2.43 µM; in test [9] it was 2.28 µM; in test [10] it was 2.32 µM. Besides, the TGI in [1] was 4.44 µM; in [2] it was 3.46 µM; in [3], 6.6 µM; in test [4] it was 6.71 µM; in test [5], 7.85 µM; in test [6] it was 2.99 µM. Moreover, the TGI in test [7] turned out to be 3.42 µM; in test [8] it was 7.5 µM; in [9] it was 7.76 µM; in test [10], 6.68 µM.
Take `CCN(CC)CCN(C(=O)C(C)(C)C)c1ccccc1N`: the TGI in [1], in test [2], in [3], in [4], in test [5] and in test [6] was greater than 100 µM throughout. Further, the TGI in [7], in test [8], in test [9] and in [10] was greater than 100 µM each time.
For `CC(NC(=O)c1ccccc1)(C(=O)O)C(=O)O`, the TGI in test [1], in test [2], in [3], in test [4], in [5] and in [6] was greater than 100 µM in each case. The TGI in [7], in test [8], in test [9] and in test [10] was greater than 100 µM in each case.
